Experimental data reported in ChEMBL document CHEMBL4024706 (Eur J Med Chem, 2017).

Experiments:
SKM-1 = test: Growth inhibition of human SKM1 cells; format: functional; details: Homo sapiens, SKM-1
Pfeiffer [1] = test: Induction of apoptosis in human Pfeiffer cells assessed as induction of PARP cleavage after 48 hrs by immunoblot; format: functional, cell-based
[2] = test system: Tyrosine-protein kinase ABL1 (Homo sapiens), P00519 [H396P]; test: Inhibition of human phosphorylated ABL1 H396P mutant (S229 to K512 residues) expressed in mammalian expression system assessed as residual activity at 1 uM by Kinomescan method relative to control
[3] = molecular target: Peripheral plasma membrane protein CASK (Homo sapiens) (UniProt O14936); test: Inhibition of wild-type human partial length CASK (M1 to H315 residues) expressed in mammalian expression system assessed as residual activity at 1 uM by Kinomescan method relative to control
[4] = molecular target: Dual specificity protein kinase CLK2 (Homo sapiens) (UniProt P49760); test: Inhibition of wild-type human partial length CLK2 (D144 to R498 residues) expressed in bacterial expression system assessed as residual activity at 1 uM by Kinomescan method relative to control
[5] = molecular target: Macrophage colony-stimulating factor 1 receptor (Homo sapiens) (UniProt P07333); test: Inhibition of wild-type human partial length autoinhibited CSF1R (Y538 to S939 residues) expressed in mammalian expression system assessed as residual activity at 1 uM by Kinomescan method relative to control
[6] = molecular target: Epidermal growth factor receptor (Homo sapiens, UniProt P00533); test: Inhibition of wild-type human partial length EGFR (R669 to V1011 residues) expressed in bacterial expression system assessed as residual activity at 1 uM by Kinomescan method relative to control
[7] = test system: Epidermal growth factor receptor (Homo sapiens), P00533 [UNDEFINED MUTATION]; test: Inhibition of human partial length EGFR E746-A750del mutant expressed in bacterial expression system assessed as residual activity at 1 uM by Kinomescan method relative to control
[8] = molecular target: Ephrin type-A receptor 8 (Homo sapiens) (UniProt P29322); test: Inhibition of wild-type human partial length EPHA8 (Q608 to C920 residues) expressed in bacterial expression system assessed as residual activity at 1 uM by Kinomescan method relative to control
[9] = molecular target: Ephrin type-B receptor 3 (Homo sapiens) (UniProt P54753); test: Inhibition of wild-type human partial length EPHB3 (Q599 to T928 residues) expressed in bacterial expression system assessed as residual activity at 1 uM by Kinomescan method relative to control
[10] = test system: Receptor-type tyrosine-protein kinase FLT3 (Homo sapiens), P36888 [N841I]; test: Inhibition of human partial length FLT3 N841I mutant (V592 to Y969 residues) expressed in bacterial expression system assessed as residual activity at 1 uM by Kinomescan method relative to control
[11] = molecular target: Hormonally up-regulated neu tumor-associated kinase (Homo sapiens) (UniProt P57058); test: Inhibition of wild-type human partial length HUNK (A31 to K354 residues) expressed in bacterial expression system assessed as residual activity at 1 uM by Kinomescan method relative to control
[12] = molecular target: Inhibitor of nuclear factor kappa-B kinase subunit epsilon (Homo sapiens) (UniProt Q14164); test: Inhibition of wild-type human full length IKK-epsilon (M1 to V716 residues) expressed in mammalian expression system assessed as residual activity at 1 uM by Kinomescan method relative to control
[13] = test system: Mast/stem cell growth factor receptor Kit (Homo sapiens), P10721 [V559D,T670I]; test: Inhibition of human partial length KIT V559D/T670I double mutant (Y545 to D952 residues) expressed in bacterial expression system assessed as residual activity at 1 uM by Kinomescan method relative to control
[14] = molecular target: Tyrosine-protein kinase Mer (Homo sapiens) (UniProt Q12866); test: Inhibition of wild-type human partial length MERTK (R557 to L884 residues) expressed in bacterial expression system assessed as residual activity at 1 uM by Kinomescan method relative to control
[15] = molecular target: MAP kinase-interacting serine/threonine-protein kinase 2 (Homo sapiens) (UniProt Q9HBH9); test: Inhibition of wild-type human partial length MKNK2 (G63 to S388 residues) expressed in mammalian expression system assessed as residual activity at 1 uM by Kinomescan method relative to control
[16] = molecular target: Serine/threonine-protein kinase mTOR (Homo sapiens) (UniProt P42345); test: Inhibition of wild-type human partial length MTOR (L1382 to W2549 residues) expressed in mammalian expression system assessed as residual activity at 1 uM by Kinomescan method relative to control
[17] = molecular target: Serine/threonine-protein kinase N1 (Homo sapiens) (UniProt Q16512); test: Inhibition of wild-type human partial length PKN1 (E598 to C948 residues) expressed in bacterial expression system assessed as residual activity at 1 uM by Kinomescan method relative to control
[18] = molecular target: Protein kinase C epsilon type (Homo sapiens) (UniProt Q02156); test: Inhibition of wild-type human partial length PRKCE (A378 to P737 residues) expressed in mammalian expression system assessed as residual activity at 1 uM by Kinomescan method relative to control
[19] = molecular target: Protein-tyrosine kinase 2-beta (Homo sapiens) (UniProt Q14289); test: Inhibition of wild-type human full length PYK2 (M1 to E967 residues) expressed in bacterial expression system assessed as residual activity at 1 uM by Kinomescan method relative to control
[20] = molecular target: Ribosomal protein S6 kinase alpha-1 (Homo sapiens) (UniProt Q15418); test: Inhibition of wild-type human partial length C-terminal RSK1 kinase domain 2 (P360 to L681 residues) expressed in bacterial expression system assessed as residual activity at 1 uM by Kinomescan method relative to control
[21] = molecular target: Uncharacterized serine/threonine-protein kinase SBK3 (Homo sapiens) (UniProt P0C264); test: Inhibition of wild-type human partial length SgK110 (L22 to R329 residues) expressed in bacterial expression system assessed as residual activity at 1 uM by Kinomescan method relative to control
[22] = molecular target: NUAK family SNF1-like kinase 2 (Homo sapiens) (UniProt Q9H093); test: Inhibition of wild-type human partial length SNARK (P22 to A333 residues) expressed in mammalian expression system assessed as residual activity at 1 uM by Kinomescan method relative to control
[23] = molecular target: Serine/threonine-protein kinase tousled-like 2 (Homo sapiens) (UniProt Q86UE8); test: Inhibition of wild-type human partial length TLK2 (E424 to N749 residues) expressed in bacterial expression system assessed as residual activity at 1 uM by Kinomescan method relative to control
[24] = molecular target: Serine/threonine-protein kinase ULK1 (Homo sapiens) (UniProt O75385); test: Inhibition of wild-type human partial length ULK1 (M1 to T309 residues) expressed in mammalian expression system assessed as residual activity at 1 uM by Kinomescan method relative to control
Pfeiffer [25] = test: Induction of apoptosis in human Pfeiffer cells assessed as induction of caspase-3 cleavage after 48 hrs by immunoblot; format: functional, cell-based

Chain of Dual specificity protein kinase CLK2 (Homo sapiens) (P49760 whole entry, looked up, the tested form may be a part): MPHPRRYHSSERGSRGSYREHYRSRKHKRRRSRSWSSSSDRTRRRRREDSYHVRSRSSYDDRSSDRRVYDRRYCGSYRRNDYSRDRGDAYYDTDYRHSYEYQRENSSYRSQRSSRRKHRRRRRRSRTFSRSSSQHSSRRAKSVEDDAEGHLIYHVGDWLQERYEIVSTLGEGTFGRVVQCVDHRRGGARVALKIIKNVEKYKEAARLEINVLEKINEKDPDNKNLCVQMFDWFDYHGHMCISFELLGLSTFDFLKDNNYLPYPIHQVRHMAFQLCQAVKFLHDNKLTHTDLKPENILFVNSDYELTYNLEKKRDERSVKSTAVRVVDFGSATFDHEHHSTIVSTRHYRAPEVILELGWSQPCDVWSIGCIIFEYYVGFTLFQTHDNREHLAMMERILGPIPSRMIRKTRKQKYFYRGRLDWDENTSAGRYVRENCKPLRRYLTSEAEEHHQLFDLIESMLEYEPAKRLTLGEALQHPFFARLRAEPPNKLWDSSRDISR
Chain of Tyrosine-protein kinase Mer (Homo sapiens) (Q12866 whole entry, the tested form may be a part): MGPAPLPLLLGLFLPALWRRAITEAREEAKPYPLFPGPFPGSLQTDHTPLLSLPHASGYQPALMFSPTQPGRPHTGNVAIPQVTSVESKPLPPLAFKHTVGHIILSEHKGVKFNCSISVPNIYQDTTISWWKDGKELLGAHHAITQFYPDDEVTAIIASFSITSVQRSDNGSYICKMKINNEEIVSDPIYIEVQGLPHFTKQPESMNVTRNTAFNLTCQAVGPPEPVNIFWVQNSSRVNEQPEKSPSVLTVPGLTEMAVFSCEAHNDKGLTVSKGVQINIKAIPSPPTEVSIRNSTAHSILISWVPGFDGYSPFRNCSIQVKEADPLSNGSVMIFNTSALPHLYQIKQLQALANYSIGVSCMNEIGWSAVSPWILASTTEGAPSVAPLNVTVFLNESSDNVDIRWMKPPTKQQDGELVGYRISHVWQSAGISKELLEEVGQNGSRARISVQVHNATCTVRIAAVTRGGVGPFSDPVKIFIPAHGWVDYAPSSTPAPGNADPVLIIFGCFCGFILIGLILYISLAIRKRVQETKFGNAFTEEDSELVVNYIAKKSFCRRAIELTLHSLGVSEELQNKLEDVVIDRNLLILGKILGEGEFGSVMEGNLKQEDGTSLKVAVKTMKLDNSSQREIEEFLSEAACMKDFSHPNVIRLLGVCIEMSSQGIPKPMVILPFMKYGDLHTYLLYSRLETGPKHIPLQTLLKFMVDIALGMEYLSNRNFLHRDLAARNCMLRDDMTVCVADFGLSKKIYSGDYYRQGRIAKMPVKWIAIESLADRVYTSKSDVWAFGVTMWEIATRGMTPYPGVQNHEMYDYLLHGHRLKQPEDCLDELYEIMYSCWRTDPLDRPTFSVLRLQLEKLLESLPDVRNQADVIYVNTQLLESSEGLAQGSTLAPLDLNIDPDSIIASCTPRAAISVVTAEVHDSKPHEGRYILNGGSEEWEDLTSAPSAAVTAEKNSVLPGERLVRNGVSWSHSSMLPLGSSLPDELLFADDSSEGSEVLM
Chain of MAP kinase-interacting serine/threonine-protein kinase 2 (Homo sapiens) (Q9HBH9 whole entry, looked up, the tested form may be a part): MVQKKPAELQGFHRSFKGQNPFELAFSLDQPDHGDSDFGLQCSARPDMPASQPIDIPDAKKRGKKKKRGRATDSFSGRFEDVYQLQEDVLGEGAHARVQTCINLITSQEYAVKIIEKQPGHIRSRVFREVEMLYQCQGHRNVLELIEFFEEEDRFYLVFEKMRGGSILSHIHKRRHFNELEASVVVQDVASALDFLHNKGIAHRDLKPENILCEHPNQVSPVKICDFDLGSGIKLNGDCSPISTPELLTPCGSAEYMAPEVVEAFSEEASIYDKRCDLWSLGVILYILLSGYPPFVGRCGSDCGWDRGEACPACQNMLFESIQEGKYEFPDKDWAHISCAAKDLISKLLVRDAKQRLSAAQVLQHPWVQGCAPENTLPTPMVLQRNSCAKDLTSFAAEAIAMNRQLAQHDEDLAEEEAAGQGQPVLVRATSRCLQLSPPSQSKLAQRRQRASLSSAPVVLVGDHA
Chain of Mast/stem cell growth factor receptor Kit (Homo sapiens), P10721 [V559D,T670I] (P10721 whole entry V559D/T670I, the tested form may be a part): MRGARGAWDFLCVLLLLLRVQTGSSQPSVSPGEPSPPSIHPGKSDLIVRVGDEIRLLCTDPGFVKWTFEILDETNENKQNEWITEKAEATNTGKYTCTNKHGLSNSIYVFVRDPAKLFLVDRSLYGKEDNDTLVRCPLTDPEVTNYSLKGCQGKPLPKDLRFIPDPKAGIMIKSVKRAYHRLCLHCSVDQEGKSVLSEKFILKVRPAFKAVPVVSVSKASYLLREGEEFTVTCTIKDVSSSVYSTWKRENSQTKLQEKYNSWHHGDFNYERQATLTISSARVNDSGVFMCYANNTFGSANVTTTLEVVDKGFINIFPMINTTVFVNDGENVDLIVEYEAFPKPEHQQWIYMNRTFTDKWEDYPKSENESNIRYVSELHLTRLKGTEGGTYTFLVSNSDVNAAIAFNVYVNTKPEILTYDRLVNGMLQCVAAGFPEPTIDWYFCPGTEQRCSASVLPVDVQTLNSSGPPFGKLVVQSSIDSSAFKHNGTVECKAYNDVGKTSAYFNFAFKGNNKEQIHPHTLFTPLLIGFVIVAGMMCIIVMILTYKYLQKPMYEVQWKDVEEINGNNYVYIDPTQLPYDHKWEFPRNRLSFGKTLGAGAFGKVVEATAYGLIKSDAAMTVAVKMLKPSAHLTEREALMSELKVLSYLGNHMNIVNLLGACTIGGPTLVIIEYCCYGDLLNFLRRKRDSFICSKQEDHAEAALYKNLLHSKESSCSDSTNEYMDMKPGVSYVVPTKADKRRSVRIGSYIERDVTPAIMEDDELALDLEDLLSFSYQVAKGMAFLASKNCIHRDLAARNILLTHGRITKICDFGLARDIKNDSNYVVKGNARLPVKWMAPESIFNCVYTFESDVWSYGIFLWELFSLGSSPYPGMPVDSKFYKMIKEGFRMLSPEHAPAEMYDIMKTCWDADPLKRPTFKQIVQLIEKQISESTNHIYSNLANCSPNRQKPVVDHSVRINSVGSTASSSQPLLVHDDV
Chain of Uncharacterized serine/threonine-protein kinase SBK3 (Homo sapiens) (P0C264 whole entry, the tested form may be a part): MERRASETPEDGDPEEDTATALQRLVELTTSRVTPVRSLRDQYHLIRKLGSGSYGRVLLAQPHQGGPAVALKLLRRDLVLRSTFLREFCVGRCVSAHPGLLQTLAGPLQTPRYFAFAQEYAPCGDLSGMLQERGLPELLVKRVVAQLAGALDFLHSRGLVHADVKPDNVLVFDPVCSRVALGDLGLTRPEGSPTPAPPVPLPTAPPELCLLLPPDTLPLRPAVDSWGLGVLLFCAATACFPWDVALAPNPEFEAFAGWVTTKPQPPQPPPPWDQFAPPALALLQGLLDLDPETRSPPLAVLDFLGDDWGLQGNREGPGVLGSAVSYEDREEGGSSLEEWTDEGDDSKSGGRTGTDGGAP
Chain of Macrophage colony-stimulating factor 1 receptor (Homo sapiens) (P07333 whole entry, the tested form may be a part): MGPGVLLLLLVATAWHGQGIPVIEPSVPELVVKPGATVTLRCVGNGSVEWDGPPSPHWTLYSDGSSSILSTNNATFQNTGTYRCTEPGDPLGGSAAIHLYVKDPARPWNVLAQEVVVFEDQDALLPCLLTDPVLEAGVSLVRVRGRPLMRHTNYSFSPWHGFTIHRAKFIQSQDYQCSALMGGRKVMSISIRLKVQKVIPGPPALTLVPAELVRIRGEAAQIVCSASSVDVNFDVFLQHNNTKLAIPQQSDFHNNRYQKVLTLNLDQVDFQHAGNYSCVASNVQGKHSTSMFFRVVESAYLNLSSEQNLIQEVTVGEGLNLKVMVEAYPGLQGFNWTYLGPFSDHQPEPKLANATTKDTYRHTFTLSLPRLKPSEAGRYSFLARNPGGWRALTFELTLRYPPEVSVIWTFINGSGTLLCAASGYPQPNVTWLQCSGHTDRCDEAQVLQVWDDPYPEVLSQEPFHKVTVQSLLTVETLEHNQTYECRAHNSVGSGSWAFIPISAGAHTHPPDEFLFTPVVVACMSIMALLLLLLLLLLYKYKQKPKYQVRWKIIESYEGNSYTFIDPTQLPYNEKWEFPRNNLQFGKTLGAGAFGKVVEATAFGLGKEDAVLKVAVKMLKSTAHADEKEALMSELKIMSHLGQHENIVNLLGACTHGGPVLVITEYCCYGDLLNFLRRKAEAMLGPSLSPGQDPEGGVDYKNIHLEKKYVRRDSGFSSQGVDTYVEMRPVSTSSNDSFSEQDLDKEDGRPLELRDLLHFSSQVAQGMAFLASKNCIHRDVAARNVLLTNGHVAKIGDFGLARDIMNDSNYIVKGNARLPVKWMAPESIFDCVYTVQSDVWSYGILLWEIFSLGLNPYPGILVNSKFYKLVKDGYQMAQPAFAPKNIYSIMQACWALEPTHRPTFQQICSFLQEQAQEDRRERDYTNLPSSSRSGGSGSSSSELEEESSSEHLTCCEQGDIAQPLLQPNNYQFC
Chain of Ribosomal protein S6 kinase alpha-1 (Homo sapiens) (Q15418 whole entry, the tested form may be a part): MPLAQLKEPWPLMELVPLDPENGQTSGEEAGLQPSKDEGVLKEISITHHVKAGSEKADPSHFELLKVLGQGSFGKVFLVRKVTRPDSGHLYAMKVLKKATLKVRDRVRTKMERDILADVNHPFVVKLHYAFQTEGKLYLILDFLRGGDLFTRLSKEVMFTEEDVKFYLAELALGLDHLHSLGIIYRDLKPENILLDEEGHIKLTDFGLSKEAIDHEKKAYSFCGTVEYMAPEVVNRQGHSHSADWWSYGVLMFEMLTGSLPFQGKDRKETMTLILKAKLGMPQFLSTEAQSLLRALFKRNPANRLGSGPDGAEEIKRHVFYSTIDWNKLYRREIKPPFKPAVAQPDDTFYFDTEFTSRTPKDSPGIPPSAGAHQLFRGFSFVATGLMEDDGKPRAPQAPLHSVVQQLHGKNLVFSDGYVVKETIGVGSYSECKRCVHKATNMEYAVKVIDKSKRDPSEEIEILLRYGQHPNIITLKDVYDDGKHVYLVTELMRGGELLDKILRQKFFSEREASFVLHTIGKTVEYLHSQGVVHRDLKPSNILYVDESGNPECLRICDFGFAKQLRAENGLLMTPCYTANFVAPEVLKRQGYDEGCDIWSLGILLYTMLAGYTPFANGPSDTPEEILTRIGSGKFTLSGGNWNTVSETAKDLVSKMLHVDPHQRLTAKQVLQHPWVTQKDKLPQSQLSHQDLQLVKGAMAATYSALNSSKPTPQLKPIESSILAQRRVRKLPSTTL

C=CC(=O)Nc1cc(Nc2cc(-c3cccc(NC(=O)c4ccc(C(C)(C)C)cc4)c3C)cn(C)c2=O)ccc1C(=O)N1CCOCC1
GI50 (SKM-1): 7.1 µM
Activity (Pfeiffer [1]): Dose-dependent effect
Activity [2]: 100%
Activity [3]: 95%
Activity [4]: 100%
Activity [5]: 100%
Activity [6]: 92%
Activity [7]: 80%
Activity [8]: 97%
Activity [9]: 92%
Activity [10]: 100%
Activity [11]: 77%
Activity [12]: 100%
Activity [13]: 96%
Activity [14]: 100%
Activity [15]: 89%
Activity [16]: 100%
Activity [17]: 100%
Activity [18]: 96%
Activity [19]: 100%
Activity [20]: 100%
Activity [21]: 77%
Activity [22]: 87%
Activity [23]: 100%
Activity [24]: 100%
Activity (Pfeiffer [25]): Dose-dependent effect
